Experiments:
[1] = tested on: cultured rat septal area neurons; experiment: Aβ(1-40) toxicity, LDH leakage from cultured septal area neurons; format: cell-based; details: siRNA 1 μmol/L added 24 h before and immediately before 15 μmol/L Aβ(1-40), 48 h; FIG. 12
Experimental: Septal area neurons were prepared from embryos (18-day-old embryos) of Wistar rats (Charles River Japan). The septal region (including septal area and basal forebrain) was cut out from embryonic brain and incubated in Ca^2+/Mg^2+-free Hanks' balanced salt solution containing 0.25% trypsin and 0.2 mg/ml DNase I at 37° C. for 15 minutes. […] Cells were plated on 96-well poly-D-lysine-coated culture plates at a concentration of 1.2×10^5 cells/well. The plated cells were cultured in a CO2 incubator (5% CO2, 37° C.). After one day, ⅔ of the medium was exchanged for the above-described DMEM containing 5% fetal calf serum. After three days, ⅔ of the medium was exchanged again for the above-described DMEM containing 5% fetal calf serum. After 6 days, the entire medium was exchanged for the above-described DMEM (this time, Gln is not contained) not containing serum.
As an indicator for cytotoxicity, LDH (lactate dehydrogenase) was measured. […] Forty-eight hours after the addition of Aβ(1-40), lactate dehydrogenase (LDH) activity in the medium was measured. At the same time, cells were solubilized with phosphate buffer (pH 7.4) containing 0.5% Triton X-100, followed by measurement of LDH in cells. […] The data were analyzed by analysis techniques of ANOVA and Welch's test.
LDH (lactate dehydrogenase) was measured as an indicator for cytotoxicity. […] The data were analyzed by ANOVA and Welch's test.

[2] = tested on: rat primary culture neurons; experiment: OGD test, microscopic observation of cell morphology; details: added before OGD treatment; FIG. 2
[3] = tested on: rat primary culture cerebral cortex neurons; experiment: OGD (oxygen glucose deprivation) test, LDH release; format: cell-based; details: added 12 h before OGD; 0.1, 1.0, 10 μM (galantamine 1.0, 10, 100 μM); FIG. 3
Text: After culturing for 7 days or more, cells were subjected to OGD treatment. […] As an indicator for neurocyte protection effect, ratio of LDH release inhibition was used. […] Therefore, when cells are injured by OGD, LDH flows out from inside of the cells into extracellular solution. In this solution, LDH is present depending on the degree of injury of the cells (cell death). The amount of LDH present in the solution can be determined by adding pyruvic acid and NADH to the solution and measuring the decreasing ratio of NADH with an absorption spectrometer.
Subsequently, rat primary culture neurons were subjected to OGD treatment in the same manner as in the previous test.
Then, their effects on LDH release induced by OGD treatment were tested.

Molecule | protective effect against Aβ(1-40) toxicity (LDH) [1] | other results
siRNA (i): double-stranded siRNA of acetylcholinesterase, SEQ ID NO: 1 and SEQ ID NO: 2 (chain 1 AAUGUCAGUGACUCUGUUUTT; chain 2 AAACAGAGUCACUGACAUUTT; chemistry not given here) | inhibit Aβ toxicity | 
COc1cc2c(cc1OC)C(=O)C(CC1CCN(Cc3ccccc3)CC1)C2.Cl (stereo not shown) [Donepezil, 1-benzyl-4-[(5,6-dimethoxy-1-indanone)-2-yl]methylpiperidine] |  | protection of neurons by cell morphology [2]: neurons were protected by the addition of donepezil before OGD treatment
siRNA (ii): double-stranded siRNA of acetylcholinesterase, SEQ ID NO: 3 and SEQ ID NO: 4 (chain 1 GCUGCCUCAAGAAAGUAUCTT; chain 2 GAUACUUUCUUGAGGCAGCTT; chemistry not given here) | inhibit Aβ toxicity | 
CCN(C)C(=O)Oc1cccc([C@H](C)N(C)C)c1 [Rivastigmine] |  | inhibition of LDH release (neurocyte protective effect) after OGD [3]: did not show any neurocyte protective effect

From patent US20070021397A1, “Neurocyte protective agent” (priority 2003, published 2007)
